Literature values, collected in patent EP4512398A1, “FLURALANER FOR USE IN METHODS OF TREATMENT AND PREVENTION OF SEA LICE INFESTATION IN FISH” (Bimeda Animal Health Limited, priority 2023, dated 2025).

System: parasites with resistance to organophosphates, pyrethroids and carbamates
Details: bio-assays, background statement; cited from earlier work

Cc1cc(C2=NOC(c3cc(Cl)cc(Cl)c3)(C(F)(F)F)C2)ccc1C(=O)NCC(=O)NCC(F)(F)F (stereo not shown) [fluralaner, Fluralaner]
efficacy against parasites with resistance to organophosphates, pyrethroids and carbamates: effective
